The results in this text go back to US20240261271A1, “APPLICATION OF HYDRONIDONE IN PREPARATION OF DRUG FOR TREATING OR PREVENTING CHRONIC HEPATITIS B WITH LIVER FIBROSIS” (priority 2021, published 2024).

Data set [1] relates to ALT (alanine aminotransferase). In words: Phase II clinical study: ALT index of liver function. The data set is classed as in vivo, human. The following applies: FAS, after 52 weeks of treatment. On the procedure: (§1) This is a randomized, double-blind, placebo-controlled, multicenter, and dose-finding phase II clinical study with foundational treatment. In the clinical trial, three different dose test groups and a placebo control group were set on the basis of the entecavir capsule antiviral treatment, and the planned sample amount of each group was 60 cases, totaling 240 cases. The three dose test groups were 180 mg group, 270 mg group, and 360 mg group, respectively. The proportion of each test group to the control group was 1:1:1:1, and the cases were distributed randomly. […] Negative conversion rate of HBV DNA after treatment between the groups was compared using CMH-λ2 test or Fisher's exact probability method. • 2. Liver tissue elasticity reduction after treatment between the groups was compared using Kruskal-Wallis H test. • 3. […] The recovery rate of the liver function index after treatment between the groups was compared using CMH-λ2 test or Fisher's exact probability method, and the found values of each index between the groups were compared using variance analysis or Kruskal-Wallis H test.

Data set [2] is described as follows: Phase II clinical study: safety (adverse events, adverse effects, SAE). In kind it is in vivo. The following applies: 180, 270 and 360 mg groups vs placebo, 52 weeks, adverse effects and SAE incidence rates not statistically different. The source says:
Safety indexes: vital signs, laboratory indexes, adverse events/adverse effects, and the like.
All cases that had been randomized, used the study drug at least once, and had safety evaluation data after medication, constitute the safety population for this study.
Safety indexes include adverse events/adverse effects, laboratory indexes, physical examinations, and the like. • 1. The incidence rates of the adverse events/adverse effects of each group were compared using CMH-λ2 test or Fisher's exact probability method, and the relative frequency and severity of all the adverse events in the test, the relationship with the drug, the treatment, the outcome, and the like were described in a table. • 2. The physical examinations were described in a table for normal/abnormal changes after the experiment. • 3. The laboratory indexes were described in a table for normal/abnormal changes, abnormal exacerbation, and the like before and after the test, and the relationship between the laboratory indexes and the test drug was evaluated. The quantitative indexes were statistically described for each time point measured, the variation inside the groups was compared using Wilcoxon signed rank test, and the variation between the groups was compared using Kruskal-Wallis H test.

In another data set the test system is HBV DNA. In words: Phase II clinical study: negative conversion rate of HBV DNA. The data set is classed as in vivo, human. Conditions: for proportion of the subjects with HBV DNA substantially converted to negative: after 52 weeks of treatment, with entecavir. As to the method: as §1
The test system of data set [3] is liver stiffness in chronic hepatitis B with hepatic fibrosis. Put plainly: Phase II clinical study: liver transient elastography LSM (kPa). The data set is classed as in vivo, human. The following applies: FAS, after 52 weeks of treatment. As to the method:
as §1

For the compound `Cc1ccc(=O)n(-c2ccc(O)cc2)c1` [hydronidone], the results for the “mean (standard deviation) of variation of the ALT index compared with the baseline” value in data set [1] (180 mg group), in data set [1] (270 mg group) and in data set [1] (360 mg group) were 44.71 (53.50), 66.47 (78.13) and 43.58 (59.87), respectively. In addition, the entries for the “proportion of the subjects with ALT indexes determined to turn normal from abnormal (baseline)” value in data set [1] (180 mg group), in data set [1] (270 mg group) and in data set [1] (360 mg group) were 15 (78.95%) n(%), 18 (85.71%) n(%) and 16 (88.89%) n(%), respectively. Further, in data set [2], the safety entry was “good”. Moreover, the “proportion of the subjects with HBV DNA substantially converted to negative” value was 34 (94.44%) n(%) in the data set with HBV DNA (180 mg group), 34 (97.14%) n(%) with HBV DNA (270 mg group) and 32 (94.12%) n(%) in the data set with HBV DNA (360 mg group). The “influence on the reduction of the virus titer by entecavir and the ALT recovery” value in the data set on HBV DNA (each hydronidone test group, 52 weeks) was “no influence”. Also, the “mean decline rate (standard deviation) of the liver transient elastography LSM (kPa)” value in data set [3] (180 mg group) amounted to 18.30%; in data set [3] (270 mg group) it was 24.62%; in data set [3] (360 mg group), 18.98%.
